The source of these data is patent publication US5306721A (priority 1990, dated 1994).

The structures appear in SMILES notation. Counter-ions that a name gives are not always drawn. Like-named read-outs stand apart in the source and are kept apart here. Some results are limits rather than exact numbers.

In data set [1] the test system is effector T lymphocyte activity (contact hypersensitivity). The experiment in a line: Percutaneous test for detecting delayed contact hypersensitivity (contact dermatitis) after DNFB immunization. Format: in vivo, guinea pig. Conditions: Cavia porcellus, 24 h, Control: 100, oral 2 mg/kg daily, day +1 to +6, read-out: Contact dermatitis, 24-hour reaction. An excerpt:
1.1 Percutaneous test for detecting contact hypersensitivity
The epicutaneous application of dinitrofluorobenzene (DNFB) led to the development of a delayed hypersensitivity in guinea pigs and mice, an immune status, which is linked to the clonal reproduction of antitrinitrophenyl (TNP)-specific T lymphocytes (TDTH -ly). If, after a latency period of at least 5 days, there is a renewed application of DNFB, lymphokines are released through the reaction with the TDTH -ly of this region of the skin and thus lead to a locally limited inflammatory reaction.
Seven days after the immunization with 1% DNFB, the sides of the experimental animals were depilated and tested by the application of one drop each of the 0.5%, 0.1%, 0.05, 0.025% and 0.01% DNFB solution. […] The test results are obtained from the severity and number of the positive skin reactions, and the stimulation index (SI) is obtained from the comparison of test animals and control animals.
The test substance is orally administered. A daily dose of 2 mg/kg of body weight, as an aqueous suspension, was administered daily by a stomach tube. Duration of treatment: 1 day+1 (one day after the immunization), up to +6. The control animals received only the lactose content of the composition.
The degree of sensitization in percent and the concentration of serum antibodies expressed as antibody titer difference is compared below to the respective control group (screening values).
A contact dermatitis value of 120 or more, i.e. corresponding to an at least 20% increase compared to the control, or of less than 80 are taken as proof of a stimulatory or suppressor effect, respectively. Antibody values of >+1 or <-1 illustrate the stimulatory or suppressor effect, respectively, of the substances on the humoral response.

Data set [2] concerns SE-specific rosette-forming cells (RFC). Kind of data set: Rosette test (SE-specific rosettes). Format: in vivo, mouse (inbred CBA strain). The following applies: oral administration. As to the method:
The testing of immunostimulatory effects was also conducted on the mouse (inbred CBA strain) by detection through the plaque test for detecting SE (sheep erythrocyte) -specific immunoglobulin M (IgM) and immunoglobulin G (IgG) PFC (plaque forming cells), and by the rosette test.
2.2 Rosette Test (SE-specific rosettes)
According to Burnet's Theory, lymphocytes carry immunoglobulin receptors on their surface. These receptors are directed against a particular antigen and are detectable by a reaction with the specific antigen. The determination of the number of rosette-forming cells (RFC) can serve as a measure of the strength of an incipient immune reaction and consequently also reproduce the effects of a suppression or stimulation of cell-proliferative processes.
Three days after the intravenous immunization with 2×10^5 SE in 0.2 ml physiological salt solution, the experimental animals were killed by hyperdistention, the spleen was removed and, after addition of Parker medium at pH 7.4, rubbed through Muller gauze. The work to recover the cell suspension was carried out in an ice-cooled water bath from about 0° C. to about 4° C. The determination of the cell density was carried out in a Neubauer counting chamber. Next, the cell count was adjusted to 1×10^7 nuclei-containing cell (NCC) per ml of medium, a count that was kept constant for all experimental formulations. Of this spleen cell suspension (1×10^7 NCC/ml), 0.9 ml were then mixed with 0.1 ml of a 5% washed SE suspension and incubated for 24 hours at 4° C. An NCC, which was surrounded by at least 4 erythrocytes and was identifiable, was rated as a rosette.

Data set [3] concerns Vaccinia Lister. Kind of data set: microbe, parasite or virus in culture. Conditions: Orthopoxvirus vaccinia. It counts as cell-based.
For another data set, the system named is Herpes simplex type 1. The experiment in a line: Grading replication test on RH cell line, herpes simplex type 1. Format: cell-based, herpes simplex virus. Conditions: Human alphaherpesvirus 1, RH cells.
Data set [4] has as its system Influenza A/WSN. Kind of data set: Grading replication test on RH cell line, influenza. Format: cell-based, influenza virus. The following applies: RH cells.
The test system of data set [5] is Vaccinia Lister. The experiment in a line: microbe, parasite or virus in culture. It counts as cell-based. Conditions: Orthopoxvirus vaccinia, Fibroblast, in Gallus gallus.
The test system of data set [6] is Influenza A/WSN. The experiment in a line: Grading replication test on chicken embryo fibroblasts, influenza. Format: cell-based. The following applies: Influenza A virus, Fibroblast.
For data set [7] the following is noted: levamisole after oral administration to man; inosine benzoate about 50 mg/kg/day; cited from earlier work.
In a further data set the test system is immune system. Conditions: cited from earlier work.
[8] abbreviates: read-out: Inhibition of virus yield.
The mark [9] stands for this setting: read-out: Lowering the virus yield.
Where [10] appears, read: 62.5 μmoles/l, read-out: Inhibition of virus yield.
[11] abbreviates: 62.5 μmoles/l, read-out: Lowering the virus yield.
Setting [12] is: 125 μmoles/l, read-out: Inhibition of virus yield.
Where [13] appears, read: 125 μmoles/l, read-out: Lowering the virus yield.
The mark [14] stands for this setting: 250 μmoles/l, read-out: Inhibition of virus yield.
Where [15] appears, read: 250 μmoles/l, read-out: Lowering the virus yield.

As to `COc1cc2[nH]c(=O)n(CCCS)c(=O)c2cc1OC` [Example 2, 3-(3-mercapto-prop-1-yl)-6,7-dimethoxy-quinazoline-2,4(1H,3H)-dione], in data set [1], the response vs control in vivo at 2 mg/kg came out at 180%. Besides, the “production of SE-specific rosette-forming cells” value in data set [2] is on record as “significant production of SE-specific rosette-forming cells”. The inhibition (in general, the share of the control response that was lost under treatment) at 31.25 µM was found to be 99.8% in the data set with Vaccinia Lister [3] (setting [8]); 100% with Herpes simplex type 1 (31.25 μmoles/l, read-out: Inhibition of virus yield); 99.9% with Vaccinia Lister [5] (setting [8]). Besides, the inhibition at 62.5 µM was above 100% in the data set with Vaccinia Lister [3] (setting [8]), above 100% in the data set on Herpes simplex type 1 (setting [10]), 99.9% in the data set with Vaccinia Lister [5] (setting [8]) and 99% in the data set on Influenza A/WSN [6] (setting [10]). In addition, the inhibition at 125 µM is above 100% in the data set with Vaccinia Lister [3] (setting [8]); above 100% in the data set with Herpes simplex type 1 (setting [12]); 99% in the data set with Influenza A/WSN [4] (Influenza A virus, WSN, 125 μmoles/l, read-out: Inhibition of virus yield); above 100% in the data set with Vaccinia Lister [5] (setting [8]); above 100% in the data set on Influenza A/WSN [6] (setting [12]). Moreover, the inhibition at 250 µM in the data set on Vaccinia Lister [3] (setting [8]) is above 100%; in the data set with Herpes simplex type 1 (setting [14]), above 100%; in the data set with Influenza A/WSN [4] (Influenza A virus, WSN, 250 μmoles/l, read-out: Inhibition of virus yield) it was 100%; in the data set with Vaccinia Lister [5] (setting [8]), above 100%; in the data set on Influenza A/WSN [6] (setting [14]) it was above 100%. The log reduction at 31.25 µM with Vaccinia Lister [3] (setting [9]) turned out to be 2.84; in the data set on Herpes simplex type 1 (31.25 μmoles/l, read-out: Lowering the virus yield), 3.67; with Influenza A/WSN [4] (Influenza A virus, WSN, 31.25 μmoles/l, read-out: Lowering the virus yield) it was 0; with Vaccinia Lister [5] (setting [9]) it was 3. The log reduction at 62.5 µM with Vaccinia Lister [3] (setting [9]) was determined as 5; with Herpes simplex type 1 (setting [11]), 5; in the data set with Influenza A/WSN [4] (Influenza A virus, WSN, 62.5 μmoles/l, read-out: Lowering the virus yield) it was 0.5; in the data set with Vaccinia Lister [5] (setting [9]) it was 3.5; in the data set with Influenza A/WSN [6] (setting [11]), 2. For the same compound, the log reduction at 125 µM in the data set on Vaccinia Lister [3] (setting [9]) was determined as 5; in the data set on Herpes simplex type 1 (setting [13]), 6.5; in the data set with Influenza A/WSN [4] (Influenza A virus, WSN, 125 μmoles/l, read-out: Lowering the virus yield), 2; with Vaccinia Lister [5] (setting [9]) it was 5; in the data set on Influenza A/WSN [6] (setting [13]), 5. Further, the log reduction at 250 µM in the data set on Vaccinia Lister [3] (setting [9]) is 5; in the data set on Herpes simplex type 1 (setting [15]) it was 6.5; in the data set with Influenza A/WSN [4] (Influenza A virus, WSN, 250 μmoles/l, read-out: Lowering the virus yield) it was 6.17; in the data set with Vaccinia Lister [5] (setting [9]), 5; with Influenza A/WSN [6] (setting [15]) it was 5. Moreover, the “Inhibition of virus yield” value in the data set with Influenza A/WSN [4] (62.5 μmoles/l, n.s. = not significant) is given as “n.s”.

On to `CC(C)(N1CC1C#N)N1CC1C(N)=O` (centres unmarked) [azimexone], for which the side effects entry in [7] was “headaches, vomiting and a decrease in haemoglobin (Hb) and erythrocytes”.

As for `c1ccc([C@H]2CN3CCSC3=N2)cc1` [levamisole hydrochloride], in data set [7], the side effects entry is “vomiting, nausea, leucopenia, and agranulocytosis”. In addition, the immunological effect result in the data set with immune system is on record as “predominantly immunorestorative effect”.

On to `O=C(OC[C@H]1O[C@@H](n2cnc3c(O)ncnc32)[C@H](O)[C@@H]1O)c1ccccc1` [inosine benzoate], for which the side effects entry in [7] was “vomiting, hyperuricemia and an increase in hematocrits”. Also, in the data set on immune system, the immunological effect entry is “primarily an immunostimulating effect”.
